Laboratory results reported in US6623740B1, “Structurally modified peptides that are resistant to peptidase degradation” (Ludwig Institute for Cancer Research, priority 1997, dated 2003).

Protocol: At different times, an aliquot measuring about 150 μl was removed and the enzymatic reaction stopped by addition of 15 μl trifluoroacetic acid (TFA). Precipitated serum proteins were pelleted by centrifugation at 15000 rpm for 10 min at 4° C. The supernatants were frozen and preserved at −20° C. until analysis.
The peptide and its degradation product(s) were then separated by reverse phase chromatography (RP-HPLC). Peaks corresponding to the different products were quantified. HPLC analysis of the various peptide samples collected at different incubation times was conducted. As well, peptide degradation kinetics including the half-life of the various peptide samples was recorded together with any increase in the degradation products of the peptide samples under investigation.
The following HPLC conditions were used:
i) column: 5-μm 4.6 mm×25 cm, C18 (Beckman),
ii) gradient: 4-20% CH3CN (0.08% TFA in H2O, 0.08% TFA in CH3CN), 0-30 min,
iii) UV detection: 200-300 nm using a Waters 996 photodiode array detector,
iv) chromatograms obtained at 225 and 280 nm were also derived.

t ½ of degradation by peptidase present in human serum: ½
SMILES: C[C@H](NC(=O)[C@@H](N)CCC(=O)O)C(=O)N[C@@H](CC(=O)O)C(=O)N1CCC[C@H]1C(=O)N[C@H](C(=O)NCC(=O)N[C@@H](Cc1c[nH]cn1)C(=O)N[C@@H](CO)C(=O)N[C@@H](Cc1ccc(O)cc1)C(=O)O)[C@@H](C)O [MZ2-E]
